Assay results as given in PMC10786919, “Design-rules for stapled peptides with in vivo activity and their application to Mdm2/X antagonists” (Nature Communications, 2024).
≈ marks a conversion by molar mass, not a printed value. Read-outs that look alike come from different tables or passages of the source. Positions of bridges follow the written chain, without caps; N, C: chain ends. Non-standard residues stand in square brackets, D forms with d. Residues, ends and D or L forms follow the SMILES beside them. Trp(6-Cl) = N[C@@H](Cc1c[nH]c2cc(Cl)ccc12)C(=O)O; Lys(N3) = [N-]=[N+]=NCCCC[C@H](N)C(=O)O; 2Nal = N[C@@H](Cc1ccc2ccccc2c1)C(=O)O; R8 = C=CCCCCCC[C@@](C)(N)C(=O)O; Cit = NC(=O)NCCC[C@H](N)C(=O)O; Cba = N[C@@H](CC1CCC1)C(=O)O; S5 = C=CCCC[C@](C)(N)C(=O)O; Nle = CCCC[C@H](N)C(=O)O; Dab = NCC[C@H](N)C(=O)O; Aib = CC(C)(N)C(=O)O; Ahx = NCCCCCC(=O)O; βAla = NCCC(=O)O; Sar = CNCC(=O)O

Legend:
[1] = Solubility assay (kinetic solubility, PBS pH 7); type: physicochemical; settings: pH 7, PBS; for solubility kinetic: pH 7, aqueous buffer, kinetic from dmso stock, read-out: Solubility
Procedure: The standard reference solutions were prepared by diluting the 10 mM stock in 10:80:10 solution of acetonitrile:methanol:DMSO to 100 µM.
The solubility value is calculated by the following equation:
Solubility [µM] = (Peak area of sample/ Peak area of standard) (Standard concentration)

[2] = Lactate dehydrogenase (LDH) release assay; type: cell-based
Procedure: (§1) HCT116 cells were stably transfected with a p53 responsive β-lactamase reporter and expanded in McCoy’s 5 A Medium with 10% fetal bovine serum (FBS), Blasticidin, and Penicillin/Streptomycin and then transferred to 1.5 ml freezing vials and stored under liquid nitrogen in growth media containing 5% DMSO. […] The cells were then seeded into a 384-well plate at a density of 8000 cells per well. […] The final working concentration of DMSO was 0.5%. Lactate dehydrogenase release was detected using the CytoTox-ONE Homogenous Membrane Integrity Assay Kit (Promega), as per the manufacturer’s instructions. Measurements were carried out using the Tecan plate reader. […] Measurements were taken a minimum of three times (biological replicates) and values are reported as geometric means of the replicates.

[3] = Experimental LogD (partition coefficient)
HCT116 cells = assay: Lactate dehydrogenase (LDH) release assay; type: cell-based
Procedure: as §1

[4] = 0% FBS 4Hr, read-out: LDH: Cytotoxicity assay EC50
[5] = 10% FBS 16Hr, read-out: LDH: Cytotoxicity assay EC50

CC(=O)N[C@@H](CCCCN=[N+]=[N-])C(=O)N[C@@H](CCCCN)C(=O)N[C@@H](CCCCN)C(=O)NCCCCCC(=O)N[C@H](C(=O)N[C@@H](CO)C(=O)N[C@@H](Cc1ccccc1)C(=O)N[C@]1(C)CCCCCCC=CCCC[C@@](C)(C(=O)N[C@@H](CCC(=O)O)C(=O)N[C@@H](CC(N)=O)C(=O)N[C@@H](Cc2ccccc2)C(N)=O)NC(=O)[C@H](CC(C)C)NC(=O)[C@H](CC(C)C)NC(=O)[C@H](C)NC(=O)[C@H](Cc2c[nH]c3ccccc23)NC(=O)[C@H](Cc2ccc(O)cc2)NC(=O)[C@H](CCC(=O)O)NC1=O)[C@@H](C)O [MP-082] (Ac-[Lys(N3)]KK[Ahx]TSF[R8]EYWALL[S5]ENF-NH2; staple 8-15)
solubility kinetic [1]: 2 µM (≈ 4.75 µg/mL)
EC50 ([2]; LDH: Cytotoxicity assay EC50): > 50 µM
logD ([3]; not stated, Partition Coeff LogD): 2.46

CC(=O)N[C@@H](CCCCN=[N+]=[N-])C(=O)N[C@H](C(=O)N[C@@H](Cc1ccccc1)C(=O)N[C@]1(C)CCCCC#CC#CCCC[C@@](C)(C(=O)N[C@@H](CCC(=O)O)C(=O)N[C@@H](C)C(=O)N[C@@H](Cc2ccccc2)C(=O)N[C@@H](C)C(=O)N[C@@H](C)C(=O)N[C@@H](Cc2ccccc2)C(N)=O)NC(=O)[C@H](CC2CCC2)NC(=O)[C@H](CCC(N)=O)NC(=O)[C@H](C)NC(=O)[C@H](Cc2c[nH]c3ccccc23)NC(=O)[C@H](Cc2ccc(O)cc2)NC(=O)[C@H](CCC(=O)O)NC1=O)[C@@H](C)O [MP-444, Ac-K(N3)-TF(X)EYWAQ(Cba)(X)EAFAAF-NH2]
solubility kinetic [1]: 167 µM (≈ 365 µg/mL)
EC50 [2, 4]: > 50.7 µM
EC50 [2, 5]: > 50.7 µM
LDH: Cytotoxicity assay % Effect (HCT116 cells; 0% FBS 4Hr): 17.89%
LDH: Cytotoxicity assay % Effect (HCT116 cells; 10% FBS 16Hr): 4.968%

CC(=O)N[C@@H](CCCCN=[N+]=[N-])C(=O)NCCC(=O)N[C@@H](CC(C)C)C(=O)N[C@H](C(=O)N[C@@H](Cc1ccccc1)C(=O)N[C@]1(C)CCCCCCC=CCCC[C@@](C)(C(=O)N[C@@H](C)C(=O)N(C)CC(=O)N(C)CC(=O)N(C)CC(=O)N(C)CC(=O)N(C)CC(N)=O)NC(=O)[C@H](CC2CCC2)NC(=O)[C@H](CCC(N)=O)NC(=O)[C@H](C)NC(=O)[C@H](Cc2c[nH]c3ccccc23)NC(=O)[C@H](Cc2ccc(O)cc2)NC(=O)[C@H](CCC(=O)O)NC1=O)[C@@H](C)O [MP-443] (Ac-[Lys(N3)][βAla]LTF[R8]EYWAQ[Cba][S5]A[Sar][Sar][Sar][Sar][Sar]-NH2; staple 6-13)
solubility kinetic [1]: 180 µM (≈ 390 µg/mL)
EC50 [2, 4]: > 50.7 µM
EC50 [2, 5]: > 50.7 µM
LDH: Cytotoxicity assay % Effect (HCT116 cells; 0% FBS 4Hr): 8.392%
LDH: Cytotoxicity assay % Effect (HCT116 cells; 10% FBS 16Hr): 2.311%

CC(=O)N[C@H](C(=O)N[C@@H](CCCNC(N)=O)C(=O)N[C@@H](CC(C)C)C(=O)N[C@H](C(=O)N[C@@H](Cc1ccccc1)C(=O)N[C@]1(C)CCCCCCC=CCCC[C@@](C)(C(=O)N[C@@H](CO)C(=O)N[C@@H](C)C(=O)N[C@@H](C)C(N)=O)NC(=O)[C@H](CC2CCC2)NC(=O)[C@H](CCC(N)=O)NC(=O)[C@H](C)NC(=O)[C@H](Cc2c[nH]c3ccccc23)NC(=O)[C@H](Cc2ccc(O)cc2)NC(=O)[C@H](CCC(=O)O)NC1=O)[C@@H](C)O)C(C)C [MP-669]
EC50 ([2]; LDH: Cytotoxicity assay EC50): > 50 µM
LDH: Cytotoxicity assay % Effect (HCT116 cells): 9.923%

CC(=O)N[C@@H](CC(C)C)C(=O)N[C@H](C(=O)N[C@@H](Cc1ccccc1)C(=O)N[C@]1(C)CCCCCCC=CCCC[C@@](C)(C(=O)N[C@@H](CO)C(=O)N[C@@H](C)C(=O)N[C@@H](C)C(N)=O)NC(=O)[C@H](CC2CCC2)NC(=O)[C@H](CCC(N)=O)NC(=O)[C@H](C)NC(=O)[C@H](Cc2c[nH]c3cc(Cl)ccc23)NC(=O)[C@H](Cc2ccc(O)cc2)NC(=O)[C@H](CCC(=O)O)NC1=O)[C@@H](C)O [MP-192]
Solubility [1]: Poorly Behaved
EC50 ([2]; LDH: Cytotoxicity assay: EC50): 19.9 µM
Partition Coeff LogD [3]: Poorly Behaved

CC(=O)N[C@H](C(=O)N[C@@H](CCCNC(N)=O)C(=O)N[C@H](C(=O)N[C@@H](CO)C(=O)N[C@@H](Cc1ccccc1)C(=O)N[C@]1(C)CCCCCCC=CCCC[C@@](C)(C(N)=O)NC(=O)[C@H](CC(C)C)NC(=O)[C@H](CC(C)C)NC(=O)[C@H](C)NC(=O)[C@H](Cc2c[nH]c3ccccc23)NC(=O)[C@H](Cc2ccc(O)cc2)NC(=O)[C@H](CCC(=O)O)NC1=O)[C@@H](C)O)C(C)C [MP-9667]
EC50 ([2]; LDH: Cytotoxicity assay EC50): > 50 µM
LDH: Cytotoxicity assay % Effect (HCT116 cells): 5.511%

CC(=O)N[C@@H](CCCNC(=N)N)C(=O)NCCCCCC(=O)N[C@@H](CCCCN=[N+]=[N-])C(=O)N[C@@H](CC(C)C)C(=O)N[C@H](C(=O)N[C@@H](Cc1ccccc1)C(=O)N[C@]1(C)CCCCCCC=CCCC[C@@](C)(C(=O)N[C@@H](CO)C(=O)N[C@@H](C)C(=O)N[C@@H](C)C(N)=O)NC(=O)[C@H](CC2CCC2)NC(=O)[C@H](CCC(N)=O)NC(=O)[C@H](C)NC(=O)[C@H](Cc2c[nH]c3ccccc23)NC(=O)[C@H](Cc2ccc(O)cc2)NC(=O)[C@H](CCC(=O)O)NC1=O)[C@@H](C)O [MP-005]
EC50 ([2]; LDH: Cytotoxicity assay: EC50): > 50 µM
LDH: Cytotoxicity assay: % Effect (HCT116 cells): 39.54%

CCCC[C@@H]1NC(=O)[C@H](CC(C)C)NC(=O)[C@H](C)NC(=O)[C@H](Cc2c[nH]c3ccccc23)NC(=O)[C@H](Cc2ccc(O)cc2)NC(=O)[C@H](CCC(=O)O)NC(=O)[C@](C)(NC(=O)[C@H](Cc2ccc3ccccc3c2)NC(=O)[C@H](CO)NC(=O)[C@@H](NC(C)=O)[C@@H](C)O)CCCCCCC=CCCC[C@@](C)(C(N)=O)NC1=O [MP-147] (Ac-TS[2Nal][R8]EYWAL[Nle][S5]-NH2; staple 4-11)
EC50 ([2]; LDH: Cytotoxicity assay EC50): > 50 µM
LDH: Cytotoxicity assay % Effect (HCT116 cells): 20.59%

CC(=O)N[C@H](C(=O)N[C@@H](CCCNC(N)=O)C(=O)N[C@@H](CCCCN)C(=O)NCCCCCC(=O)N[C@H](C(=O)N[C@@H](CO)C(=O)N[C@@H](Cc1ccccc1)C(=O)N[C@]1(C)CCCCCCC=CCCC[C@@](C)(C(=O)N[C@@H](CCC(=O)O)C(=O)N[C@@H](CC(N)=O)C(=O)N[C@@H](Cc2ccccc2)C(N)=O)NC(=O)[C@H](CC(C)C)NC(=O)[C@H](CC(C)C)NC(=O)[C@H](C)NC(=O)[C@H](Cc2c[nH]c3ccccc23)NC(=O)[C@H](Cc2ccc(O)cc2)NC(=O)[C@H](CCC(=O)O)NC1=O)[C@@H](C)O)C(C)C [MP-668] (Ac-V[Cit]K[Ahx]TSF[R8]EYWALL[S5]ENF-NH2; staple 8-15)
EC50 ([2]; LDH: Cytotoxicity assay EC50): > 50 µM
LDH: Cytotoxicity assay % Effect (HCT116 cells): 4.429%

CC(=O)N[C@H](C(=O)N[C@@H](CO)C(=O)N[C@@H](Cc1ccccc1)C(=O)N[C@]1(C)CCCCCCC=CCCC[C@@](C)(C(=O)N[C@@H](CCC(=O)O)C(N)=O)NC(=O)[C@H](CC2CCC2)NC(=O)[C@H](CC(C)C)NC(=O)[C@H](C)NC(=O)[C@H](Cc2c[nH]c3cc(Cl)ccc23)NC(=O)[C@H](Cc2ccc(O)cc2)NC(=O)[C@H](CCC(=O)O)NC1=O)[C@@H](C)O [MP-043] (Ac-TSF[R8]EY[Trp(6-Cl)]AL[Cba][S5]E-NH2; staple 4-11)
EC50 ([2]; LDH: Cytotoxicity assay EC50): > 50 µM
LDH: Cytotoxicity assay % Effect (HCT116 cells): 3.493%

CC(=O)N[C@@H](CCN)C(=O)N[C@@H](CCN)C(=O)NCCCCCC(=O)N[C@H](C(=O)N[C@@H](CO)C(=O)N[C@@H](Cc1ccccc1)C(=O)N[C@]1(C)CCCCCCC=CCCC[C@@](C)(C(=O)N[C@@H](CCC(=O)O)C(=O)N[C@@H](CC(N)=O)C(=O)N[C@@H](Cc2ccccc2)C(N)=O)NC(=O)[C@H](CC(C)C)NC(=O)[C@H](CC(C)C)NC(=O)[C@H](C)NC(=O)[C@H](Cc2c[nH]c3ccccc23)NC(=O)[C@H](Cc2ccc(O)cc2)NC(=O)[C@H](CCC(=O)O)NC1=O)[C@@H](C)O [MP-664] (Ac-[Dab][Dab][Ahx]TSF[R8]EYWALL[S5]ENF-NH2; staple 7-14)
EC50 ([2]; LDH: Cytotoxicity assay EC50): > 50 µM
LDH: Cytotoxicity assay % Effect (HCT116 cells): 4.71%

CCCC[C@H](NC(=O)[C@H](CC(C)C)NC(=O)[C@H](C)NC(=O)[C@H](Cc1c[nH]c2ccccc12)NC(=O)[C@H](Cc1ccc(O)cc1)NC(=O)[C@H](CCC(=O)O)NC(=O)C(C)(C)NC(=O)[C@H](Cc1ccccc1)NC(=O)[C@H](CO)NC(=O)[C@@H](NC(C)=O)[C@@H](C)O)C(=O)NC(C)(C)C(N)=O [MP-156]
EC50 ([2]; LDH: Cytotoxicity assay EC50): > 50 µM
LDH: Cytotoxicity assay % Effect (HCT116 cells): -1.482%

CC(=O)N[C@@H](CCCCN=[N+]=[N-])C(=O)NCCC(=O)N[C@@H](CC(C)C)C(=O)N[C@H](C(=O)N[C@@H](Cc1ccccc1)C(=O)N[C@]1(C)CCCCCCC=CCCC[C@@](C)(C(=O)N[C@@H](CO)C(=O)N[C@@H](C)C(=O)N[C@@H](C)C(N)=O)NC(=O)[C@H](CC2CCC2)NC(=O)[C@H](CCC(N)=O)N(C)C(=O)[C@H](C)NC(=O)[C@H](Cc2c[nH]c3ccccc23)NC(=O)[C@H](Cc2ccc(O)cc2)NC(=O)[C@H](CCC(=O)O)NC1=O)[C@@H](C)O [MP-499]
EC50 ([2]; LDH: Cytotoxicity assay: EC50): > 50.6 µM
LDH: Cytotoxicity assay: % Effect (HCT116 cells): 13.75%

CC(=O)N[C@H](C(=O)N[C@@H](CO)C(=O)N[C@@H](Cc1ccccc1)C(=O)NC(C)(C)C(=O)N[C@@H](CCC(=O)O)C(=O)N[C@@H](Cc1ccc(O)cc1)C(=O)N[C@@H](Cc1c[nH]c2ccccc12)C(=O)N[C@@H](C)C(=O)N[C@@H](CC(C)C)C(=O)N[C@@H](CC1CCC1)C(=O)NC(C)(C)C(N)=O)[C@@H](C)O [MP-1154] (Ac-TSF[Aib]EYWAL[Cba][Aib]-NH2)
EC50 ([2]; LDH: Cytotoxicity assay EC50): > 50 µM
LDH: Cytotoxicity assay % Effect (HCT116 cells): 17.78%
